Several values for one entry are separate records, joined by “and”; a condition that tells them apart may be missing. Identical values can stand only once. Toxic doses and inconclusive results are not listed. Rule as the data show it: active = T/C of 150% or more; inactive = T/C below 125%.
System: L1210 leukemia ip in BDF1 mice, survival T/C
Experiment: NCI In Vivo Anticancer Drug Screen. Data for tumor model L1210 Leukemia (intraperitoneal) in B6D2F1 (BDF1) mice
Settings: endpoint: mean survival time, higher = longer survival
How it was run: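 Antitumor effect is assessed in tumor-bearing animals. Survival in the compound arm is compared with a vehicle-dosed control arm and expressed as their quotient.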

[1] = dose: 100.0 mg/kg/injection, schedule: Q01DX001 (ip), vehicle: saline
[2] = dose: 100.0 mg/kg/injection, schedule: Q01DX009 (ip), vehicle: Klucel (hydroxypropylcellulose) (HPC)
[3] = dose: 100.0 mg/kg/injection, schedule: Q04DX003 (ip), vehicle: Klucel (hydroxypropylcellulose) (HPC)
[4] = dose: 200.0 mg/kg/injection, schedule: Q01DX001 (ip), vehicle: saline
[5] = dose: 200.0 mg/kg/injection, schedule: Q01DX009 (ip), vehicle: Klucel (hydroxypropylcellulose) (HPC)
[6] = dose: 200.0 mg/kg/injection, schedule: Q04DX003 (ip), vehicle: Klucel (hydroxypropylcellulose) (HPC)
[7] = dose: 400.0 mg/kg/injection, schedule: Q01DX001 (ip), vehicle: saline
[8] = dose: 400.0 mg/kg/injection, schedule: Q01DX009 (ip), vehicle: Klucel (hydroxypropylcellulose) (HPC)
[9] = dose: 400.0 mg/kg/injection, schedule: Q04DX003 (ip), vehicle: Klucel (hydroxypropylcellulose) (HPC)
[10] = dose: 100.0 mg/kg/injection, schedule: Q01DX009 (ip), vehicle: saline
[11] = dose: 200.0 mg/kg/injection, schedule: Q01DX009 (ip), vehicle: saline
[12] = dose: 100.0 mg/kg/injection, schedule: Q04DX003 (ip), vehicle: saline
[13] = dose: 200.0 mg/kg/injection, schedule: Q04DX003 (ip), vehicle: saline
[14] = dose: 400.0 mg/kg/injection, schedule: Q01DX009 (ip), vehicle: saline
[15] = dose: 400.0 mg/kg/injection, schedule: Q04DX003 (ip), vehicle: saline
[16] = dose: 50.0 mg/kg/injection, schedule: Q01DX001 (ip), vehicle: saline

Measured: T/C

O=Cc1c[nH]c2ccccc12
inactive: [1] 104 % of control | [2] 103 % of control | [3] 110 % of control | [4] 98 % of control | [5] 102 % of control | [6] 105 % of control | [7] 97 % of control | [8] 107 % of control | [9] 98 % of control

Cc1cc(C)c(S(=O)(=O)Cc2cc(Cl)cc(Cl)c2O)c(C)c1
inactive: dose: 50.0 mg/kg/injection, schedule: Q01DX009 (ip), vehicle: saline 86 % of control | dose: 50.0 mg/kg/injection, schedule: Q04DX003 (ip), vehicle: acetone 93 % of control | [1] 88 % of control | [10] 105 % of control | dose: 100.0 mg/kg/injection, schedule: Q04DX003 (ip), vehicle: acetone 89 % of control | [4] 87 % of control | [11] 91 % of control | dose: 200.0 mg/kg/injection, schedule: Q04DX003 (ip), vehicle: acetone 91 % of control

CCOC(=O)CNC(=O)OCCSc1ccc(C)cc1
inactive: dose: 100.0 mg/kg/injection, schedule: Q01DX009 (ip), vehicle: saline with Tween-80 97 % of control | dose: 200.0 mg/kg/injection, schedule: Q01DX009 (ip), vehicle: saline with Tween-80 93 % of control

COc1ccc(COC(=O)Nc2ccc([N+](=O)[O-])cc2OC)cc1
inactive: [2] 90 % of control | [5] 91 % of control | [8] 106 % of control

O=C(/C=C/c1ccccc1)CC(=O)c1ccccc1
inactive: dose: 100.0 mg/kg/injection, schedule: Q04DX003 (ip), vehicle: DMSO 102 % of control | dose: 200.0 mg/kg/injection, schedule: Q04DX003 (ip), vehicle: DMSO 97 % of control | dose: 400.0 mg/kg/injection, schedule: Q04DX003 (ip), vehicle: DMSO 96 % of control

CCCCC(NC(=O)CNC(=O)OCc1ccccc1)C(=O)OC (centres undefined)
inactive: dose: 100.0 mg/kg/injection, schedule: Q04DX003 (ip), vehicle: saline with Tween-80 108 % of control | dose: 200.0 mg/kg/injection, schedule: Q04DX003 (ip), vehicle: saline with Tween-80 100 % of control | dose: 400.0 mg/kg/injection, schedule: Q04DX003 (ip), vehicle: saline with Tween-80 93 % of control

Cc1ccc(S(=O)(=O)Nc2cc(C)cc(CCNC=O)c2C)cc1
inactive: dose: 50.0 mg/kg/injection, schedule: Q01DX001 (ip), vehicle: carboxymethylcellulose (CMC) 114 % of control | dose: 100.0 mg/kg/injection, schedule: Q01DX001 (ip), vehicle: carboxymethylcellulose (CMC) 109 % of control | dose: 200.0 mg/kg/injection, schedule: Q01DX001 (ip), vehicle: carboxymethylcellulose (CMC) 95 % of control | dose: 400.0 mg/kg/injection, schedule: Q01DX001 (ip), vehicle: carboxymethylcellulose (CMC) 93 % of control

CCOC(=O)/C(O)=C\c1cc[n+]([O-])nc1Cl
inactive: dose: 100.0 mg/kg/injection, schedule: Q04DX002 (ip), vehicle: Klucel (hydroxypropylcellulose) (HPC) 101 % of control | dose: 200.0 mg/kg/injection, schedule: Q04DX002 (ip), vehicle: Klucel (hydroxypropylcellulose) (HPC) 101 % of control | dose: 400.0 mg/kg/injection, schedule: Q04DX002 (ip), vehicle: Klucel (hydroxypropylcellulose) (HPC) 101 % of control

Clc1ccc(CSC2=NCCN2)cc1
inactive: dose: 12.5 mg/kg/injection, schedule: Q04DX003 (ip), vehicle: saline 94 % of control | dose: 25.0 mg/kg/injection, schedule: Q04DX003 (ip), vehicle: saline 93 % of control | dose: 50.0 mg/kg/injection, schedule: Q04DX003 (ip), vehicle: saline 98 % of control

O=C([O-])C[n+]1ccccc1
inactive: [10] 105 % of control | [12] 105 % of control | [11] 94 % of control | [13] 107 % of control | [14] 87 % of control | [15] 100 % of control

O=c1cc(CCl)occ1O
inactive: dose: 50.0 mg/kg/injection, schedule: Q04DX003 (ip), vehicle: Klucel (hydroxypropylcellulose) (HPC) 95 % of control | [3] 98 % of control | [6] 97 % of control

CSc1ccccc1C1CCCCCC1OS(=O)(=O)c1ccc(C)cc1 (centres undefined)
inactive: dose: 15.0 mg/kg/injection, schedule: Q01DX001 (ip), vehicle: carboxymethylcellulose (CMC) 96 % of control | dose: 30.0 mg/kg/injection, schedule: Q01DX001 (ip), vehicle: carboxymethylcellulose (CMC) 102 % of control

O=[N+]([O-])/C=C/c1ccc(Br)cc1
inactive: dose: 75.0 mg/kg/injection, schedule: Q01DX001 (ip), vehicle: saline 95 % of control

CCCC(=O)CCNC
inactive: [1] 103 % of control | [4] 94 % of control | [7] 111 % of control

O=C(C1C(c2ccccc2)C1c1ccccc1)N(CCO)c1ccccc1 (centres undefined)
inactive: dose: 12.5 mg/kg/injection, schedule: Q04DX002 (ip), vehicle: saline 94 % of control | dose: 25.0 mg/kg/injection, schedule: Q04DX002 (ip), vehicle: saline 106 % of control | dose: 50.0 mg/kg/injection, schedule: Q04DX002 (ip), vehicle: saline 94 % of control

c1ccc(CC(CNCC2C(c3ccccc3)C2c2ccccc2)c2ccccc2)cc1 (centres undefined)
inactive: dose: 12.5 mg/kg/injection, schedule: Q04DX002 (ip), vehicle: saline with Tween-80 96 % of control | dose: 25.0 mg/kg/injection, schedule: Q04DX002 (ip), vehicle: saline with Tween-80 93 % of control | dose: 50.0 mg/kg/injection, schedule: Q04DX002 (ip), vehicle: saline with Tween-80 90 % of control

COC(OC)C1=CC(=O)NC(NC(=O)C(Cl)Cl)N1 (centres undefined)
inactive: [16] 92 % of control | [1] 98 % of control | [4] 95 % of control

O=C(CCCC(=O)N/N=C/c1ccc([N+](=O)[O-])cc1)N/N=C\c1ccc([N+](=O)[O-])cc1
inactive: [16] 93 % of control | [1] 100 % of control | [4] 103 % of control | [7] 103 % of control

Cc1cc(N=O)c(NO)cc1C
inactive: [2] 108 % of control | [5] 103 % of control | [8] 118 % of control

O=C(O)c1cccc(OCc2ccccc2)c1
inactive: [2] 105 % of control | [5] 100 % of control

NC(=O)/C=C/C(=O)O (tested in a mixture with another compound)
inactive: dose: 31.25 mg/kg/injection, schedule: Q#A X Z (ip), vehicle: saline 118 % of control | dose: 62.5 mg/kg/injection, schedule: Q#A X Z (ip), vehicle: saline 119 % of control | dose: 125.0 mg/kg/injection, schedule: Q#A X Z (ip), vehicle: saline 100 % of control | dose: 125.0 mg/kg/injection, schedule: Q#A X Z (oral), vehicle: saline 102 % of control | dose: 250.0 mg/kg/injection, schedule: Q#A X Z (oral), vehicle: saline 100 % of control | dose: 500.0 mg/kg/injection, schedule: Q#A X Z (oral), vehicle: saline 102 % of control | dose: 1000.0 mg/kg/injection, schedule: Q#A X Z (oral), vehicle: saline 102 % of control

C[CH2][Ge]([CH2]C)[O][Ge]([CH2]C)[CH2]C
inactive: dose: 5.0 mg/kg/injection, schedule: Q04DX002 (ip), vehicle: saline with Tween-80 95 % of control | dose: 10.0 mg/kg/injection, schedule: Q04DX002 (ip), vehicle: saline with Tween-80 100 % of control | dose: 20.0 mg/kg/injection, schedule: Q04DX002 (ip), vehicle: saline with Tween-80 95 % of control

Cc1ccc(Sc2cccc3c(C)c4cccc5c4c(c23)C[S+]5c2ccc(C)cc2)cc1 (centres undefined)
inactive: dose: 1.56 mg/kg/injection, schedule: Q01DX009 (ip), vehicle: saline with Tween-80 103 % of control | dose: 3.13 mg/kg/injection, schedule: Q01DX009 (ip), vehicle: saline with Tween-80 101 % of control | dose: 6.25 mg/kg/injection, schedule: Q01DX009 (ip), vehicle: saline with Tween-80 103 % of control

CCOC(=O)CC(=O)CCc1ccccc1
inactive: [1] 104 % of control | [10] 94 % of control and 100 % of control | dose: 100.0 mg/kg/injection, schedule: Q04DX002 (ip), vehicle: saline 103 % of control and 105 % of control | [12] 113 % of control | [4] 104 % of control | [11] 94 % of control and 102 % of control | dose: 200.0 mg/kg/injection, schedule: Q04DX002 (ip), vehicle: saline 100 % of control and 108 % of control | [13] 106 % of control | [7] 103 % of control | [14] 92 % of control and 97 % of control | dose: 400.0 mg/kg/injection, schedule: Q04DX002 (ip), vehicle: saline 96 % of control and 102 % of control | [15] 105 % of control

CN(C)C(=O)Sc1c(Cl)cc(S(=O)(=O)F)cc1[N+](=O)[O-]
inactive: [3] 102 % of control | [6] 101 % of control | [9] 100 % of control

— PubChem BioAssay AID248 (DTP/NCI, 2004)
